Target: T1, P2Y purinoceptor 14 (Homo sapiens, UniProt Q15391)
T1 sequence (Q15391 whole entry): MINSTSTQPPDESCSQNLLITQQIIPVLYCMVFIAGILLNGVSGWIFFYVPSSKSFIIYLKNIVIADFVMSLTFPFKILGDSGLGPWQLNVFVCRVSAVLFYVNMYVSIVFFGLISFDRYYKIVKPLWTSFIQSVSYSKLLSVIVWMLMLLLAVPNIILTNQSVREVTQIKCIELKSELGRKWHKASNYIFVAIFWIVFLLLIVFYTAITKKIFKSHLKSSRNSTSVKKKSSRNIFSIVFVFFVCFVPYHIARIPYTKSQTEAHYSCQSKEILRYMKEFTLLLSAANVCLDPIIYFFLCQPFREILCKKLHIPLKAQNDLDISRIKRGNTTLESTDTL
Assay: Agonist activity at human P2Y14 expressed in COS7 cells assessed as stimulation of PLC-mediated [3H]inositol hydrolysis
Format: functional, cell-based, COS-7

SMILES	EC50	EC50 (cos-7)
O=c1ccn([C@@H]2O[C@H](COP(=O)(O)OP(=O)(O)O[C@H]3O[C@H](CO)[C@@H](O)[C@H](O)[C@H]3O)[C@@H](O)[C@H]2O)c(=S)[nH]1	49 nM (agonist)	
O=C(O)[C@H]1O[C@H](OP(=O)(O)OP(=O)(O)OC[C@H]2O[C@@H](n3ccc(=O)[nH]c3=S)[C@H](O)[C@@H]2O)[C@H](O)[C@@H](O)[C@@H]1O	420 nM (agonist)	
O=C(O)[C@H]1O[C@H](OP(=O)(O)OP(=O)(O)OC[C@H]2O[C@@H](n3ccc(=O)[nH]c3=O)[C@H](O)[C@@H]2O)[C@H](O)[C@@H](O)[C@@H]1O	370 nM (agonist)	
CSc1ccn([C@@H]2O[C@H](COP(=O)(O)OP(=O)(O)O[C@H]3O[C@H](CO)[C@@H](O)[C@H](O)[C@H]3O)[C@@H](O)[C@H]2O)c(=O)n1	> 10000 nM	
O=c1ccn([C@@H]2O[C@H](COP(=O)(O)OP(=O)(O)OC[C@@]3(O)O[C@H](CO)[C@@H](O)[C@@H]3O)[C@@H](O)[C@H]2O)c(=O)[nH]1	880 nM (agonist)	

Further lines, results first:

EC50	EC50 (cos-7)	SMILES
1880 nM (agonist)		O=c1ccn([C@@H]2O[C@H](COP(=O)(O)OP(=O)(O)O[C@H]3[C@H](O)[C@@H](O)[C@H](O)[C@@H](O)[C@@H]3O)[C@@H](O)[C@H]2O)c(=O)[nH]1
	810 nM (agonist)	CC(=O)N[C@@H]1[C@H](OP(=O)(O)OP(=O)(O)OC[C@H]2O[C@@H](n3ccc(=O)[nH]c3=O)[C@H](O)[C@@H]2O)O[C@@H](CO)[C@H](O)[C@H]1O (stereo in doubt)
350 nM (agonist)		O=c1[nH]c(=S)ccn1[C@@H]1O[C@H](COP(=O)(O)OP(=O)(O)O[C@H]2O[C@H](CO)[C@@H](O)[C@H](O)[C@H]2O)[C@@H](O)[C@H]1O

— ChEMBL document CHEMBL1147137, “Structure-activity relationship of uridine 5'-diphosphoglucose analogues as agonists of the human P2Y14 receptor” (J Med Chem, 2007)
